# Results as given in patent US4608365A, “Treatment of neurologic functions” (priority 1984, dated 1986).
# Assays:
# [1] = tested on: patients given TRH; assay: Amelioration of TRH side-effects by co-medication; design: species or system human; settings: in vivo
# Source text: In addition, all patients experiencing the various described side-effects considered those side-effects to be minor and desired further TRH treatments.
# [2] = tested on: tissue-cultured fetal rat lower motor neurons; assay: Trophic-like effect on tissue-cultured fetal rat lower motor neurons (cholineactyltransferase); assay type: cell-based; settings: chronic
# Source text: "Transmitter-like," as used herein, includes not only direct excitatory (or facilitatory) and inhibitory actions on the lower motor neurons, but also any action on lower motor neurons or afferents thereto that results indirectly in such an effect. That excitatory TRH action, increasing patients' strength, is either directly excitatory or facilitatory and perhaps analogous to the lower motor neuron facilitation of glutamate excitation noted with TRH micropipetted into spinal cords of normal amphibia (Nicoll, J. Pharmac. Exp. Therap. 1978; 207: 817-24; Phillis et al., Can. J. Physiol. Pharmacol. 1979; 57: 887-99 and rodents, White Abstr. Soc. Neurosci 1983, 9: 714, and in other animal studies. An inhibitory transmitter-like action seems likely to underlie both the rapid-onset autorefractory phenomenon and the possibly related clinical reduction of spasticity, spasms and cramps. A tachyphalaxis or desensitization phenomenon, perhaps similar to the clinical autorefractory state, has been noted in animal lower motor neurons with larger amounts of TRH micropipetted into the spinal cord (Nicoll and Phillis, et al., supra).
molecule,measurement,setting,value
CN(C)CCOC(c1ccccc1)c1ccccc1.Cn1c(=O)c2[nH]c(Cl)nc2n(C)c1=O [dimenhydrate],effect on nausea side-effect of TRH,[1],"diminishes the rare, occurring nausea side-effect"
CC(N)C(O)c1ccccc1 (stereo not drawn) [phenylpropanolamine],effect on shivering side-effect of TRH,[1],diminish the shivering side-effect
insulin,enhancement of cholineactyltransferase,[2],10 fold
